Measurements from patent US20230391772A1, “METHODS AND COMPOSITIONS FOR TARGETED PROTEIN DEGRADATION” (Ranok Therapeutics (Hangzhou) Co. Ltd., priority 2020, published 2023).

Key:
[1] = target: T1, HSP90a protein (Homo sapiens, UniProt P07900); test: HSP90α-binding fluorescent polarization (FP) assay, BODIPY-labeled RNK04010 probe; conditions: FP competition with RNK04010 (BODIPY-labeled), 5 nM, 300 min at 25° C.
T1 construct: purchased BPS Bioscience 50298
Experimental: HSP90α-Binding Fluorescent Polarization (FP) Assay
Binding of test compounds to HSP90a protein was measured by fluorescent polarization (FP) using the HSP90a (N-terminal) Assay Kit (BPS Bioscience, #50298), following the manufacturer's instructions, except as noted. Fluorescently labeled HSP90-binding compounds, either the provided FITC-geldanamycin (5 nM final concentration) or RNK04010, a triazolone-based HSP90 binding small molecule labeled with BODIPY through a piperizine-phenyl linker (5 nM final concentration) were employed. A 2.5-fold serial dilution of each test compound ranging from 20 μM to 5.2 nM was assayed for binding to HSP90a. After the final step of adding HSP90a protein to each assay well, plates were mixed by brief shaking, incubated at 25° C. for 120 min for FITC-geldanamycin or 300 min for RNK04010, and fluorescence was measured using a PerkinElmer EnVision Plate Reader.

[2] = test system: MIA PaCa-2 human pancreatic carcinoma; test: MIA PaCa-2 CCK-8 proliferation assay; assay type: cell-based; conditions: Homo sapiens, MIA PaCa-2, 72 h, MIA PaCa-2 cells
Experimental: The following cancer cell lines were employed: BT-474 human breast carcinoma (ATCC, #HTB-20); MIA PaCa-2 human pancreatic carcinoma [2 copies KRAS(G12C)](ATCC, #CRL-1420); NCI-H23 human non-small cell lung cancer [1 copy KRAS(G12C)](ATCC, #CRL-5800); NCI-H358 human non-small cell lung cancer [1 copy KRAS(G12C)](ATCC, #CRL-5807); LU65A human lung carcinoma (Pharmaron, Beijing, China). Cell lines were cultured essentially according to ATCC and Pharmaron recommendations.
Cancer Cell Line Proliferation (CCK-8) Assays
3-fold serial dilutions of each test compound were prepared ranging from 20 μM to 1.02 nM.
% Inhibition=100−(D−B)/(S−B)*100%. • S: Absorbance of cells treated with DMSO • D: Absorbance of compound-treated cells • B: Absorbance of medium with DMSO without cells

[3] = target: KRAS(G12C) (Homo sapiens, UniProt P01116, G12C); test: KRAS(G12C)/SOS1 homogeneous time-resolved fluorescence (HTRF) assay; design: purchased Cisbio 63ADK000CB16PEG; conditions: absence of GTP, 4° C. for 3 hr, read-out: KRAS (G12C) binding
Experimental: KRAS(G12C)/SOS1 Homogeneous Time-Resolved Fluorescence (HTRF) Assay
Binding of test compounds to KRAS(G12C) protein, which in turn blocks KRAS(G12C) interaction with the SOS1 protein, was measured in the absences of GTP by homogeneous time-resolved fluorescence (HTRF) using the KRAS-G12C/SOS1 Binding Assay Kit (Cisbio, #63ADK000CB16PEG), following the manufacturer's instructions, except as noted. 3-fold serial dilutions of each test compound were prepared ranging from […] to 1.02 nM. The test compound was mixed and incubated with reaction components, incubated in a sealed plate at 4° C. for 3 hr and fluorescence was measured using a PerkinElmer Envision plate reader.

KRAS(G12C), sequence (P01116 1-188 isoform P01116-2 G12C): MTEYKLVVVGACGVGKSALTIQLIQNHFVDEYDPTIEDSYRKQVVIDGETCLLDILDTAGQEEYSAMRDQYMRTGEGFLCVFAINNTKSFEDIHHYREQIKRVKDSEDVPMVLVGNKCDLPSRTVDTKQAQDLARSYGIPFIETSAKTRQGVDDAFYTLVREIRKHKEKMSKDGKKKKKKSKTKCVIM

Compound	IC50 [1] [nM]	EC50 [2] [nM]	IC50 [3] [nM]
C=CC(=O)N1CCN(c2nc(OC[C@@H]3C[C@@H](OCC(=O)N4CCC(Cc5ccc(-n6c(C(=O)NCC(F)(F)F)nnc6-c6cc(C(C)C)c(O)cc6O)cc5)CC4)CN3C)nc3c2CCN(c2cccc4cccc(Cl)c24)C3)C[C@@H]1CC#N [Compound 303, 4-(4-((1-(2-(((3R,5S)-5-(((4-((S)-4-acryloyl-3-(cyanomethyl)piperazin-1-yl)-7-(8-chloronaphthalen-1-yl)-5,6,7,8-tetrahydropyrido[3,4-d]pyrimidin-2-yl)oxy)methyl)-1-methylpyrrolidin-3-yl)oxy)acetyl)piperidin-4-yl)methyl)phenyl)-5-(2,4-dihydroxy-5-isopropylphenyl)-N-(2,2,2-trifluoroethyl)-4H-1,2,4-triazole-3-carboxamide]	< 100	100 to 1000	100 to 1000
C=CC(=O)N1CCN(c2nc(OC[C@@H]3CCCN(C(=O)C4CCN(Cc5ccc(-n6c(O)nnc6-c6cc(C(C)C)c(O)cc6O)cc5)CC4)C3)nc3c2CCN(c2cccc4cccc(Cl)c24)C3)C[C@@H]1CC#N [Compound 293, 2-((S)-1-acryloyl-4-(7-(8-chloronaphthalen-1-yl)-2-(((R)-1-(1-(4-(3-(2,4-dihydroxy-5-isopropylphenyl)-5-hydroxy-4H-1,2,4-triazol-4-yl)benzyl)piperidine-4-carbonyl)piperidin-3-yl)methoxy)-5,6,7,8-tetrahydropyrido[3,4-d]pyrimidin-4-yl)piperazin-2-yl)acetonitrile]	< 100	100 to 1000	> 1000
C=CC(=O)N1CCN(c2nc(OCCN3CCC4(CC3)CCN(C(=O)C3CCN(Cc5ccc(-n6c(C(=O)NCC(F)(F)F)nnc6-c6cc(C(C)C)c(O)cc6O)cc5)CC3)CC4)nc3c2CCN(c2cccc4cccc(Cl)c24)C3)C[C@@H]1CC#N [Compound 209, (S)-4-(4-((4-(9-(2-((4-(4-acryloyl-3-(cyanomethyl)piperazin-1-yl)-7-(8-chloronaphthalen-1-yl)-5,6,7,8-tetrahydropyrido[3,4-d]pyrimidin-2-yl)oxy)ethyl)-3,9-diazaspiro[5.5]undecane-3-carbonyl)piperidin-1-yl)methyl)phenyl)-5-(2,4-dihydroxy-5-isopropylphenyl)-N-(2,2,2-trifluoroethyl)-4H-1,2,4-triazole-3-carboxamide]	< 100	< 100	< 100
C=CC(=O)N1CCN(c2nc(OC[C@@H]3C[C@H](N4CCC(C(=O)N5CCN(Cc6ccc(-n7c(C(=O)NCCN8CCN(S(C)(=O)=O)CC8)nnc7-c7cc(C(C)C)c(O)cc7O)cc6)CC5)CC4)CN3C)nc3c2CCN(c2cccc4cccc(Cl)c24)C3)C[C@@H]1CC#N [Compound 327, 4-{4-[(4-{1-[(3S,5S)-5-({[7-(8-chloronaphthalen-1-yl)-4-[(3S)-3-(cyanomethyl)-4-(prop-2-enoyl)piperazin-1-yl]-5H,6H,8H-pyrido[3,4-d]pyrimidin-2-yl]oxy}methyl)-1-methylpyrrolidin-3-yl]piperidine-4-carbonyl}piperazin-1-yl)methyl]phenyl}-5-(2,4-dihydroxy-5-isopropylphenyl)-N-[2-(4-methanesulfonylpiperazin-1-yl)ethyl]-1,2,4-triazole-3-carboxamide]	< 100	100 to 1000	< 100
C=CC(=O)N1CCN(c2nc(OC[C@@H]3CN(C(=O)C4CCN(Cc5ccc(-n6c(O)nnc6-c6cc(C(C)C)c(O)cc6O)cc5)CC4)CCN3C)nc3c2CCN(c2cccc4cccc(Cl)c24)C3)C[C@@H]1CC#N [Compound 202, 2-((S)-1-acryloyl-4-(7-(8-chloronaphthalen-1-yl)-2-(((S)-4-(1-(4-(3-(2,4-dihydroxy-5-isopropylphenyl)-5-hydroxy-4H-1,2,4-triazol-4-yl)benzyl)piperidine-4-carbonyl)-1-methylpiperazin-2-yl)methoxy)-5,6,7,8-tetrahydropyrido[3,4-d]pyrimidin-4-yl)piperazin-2-yl)acetonitrile, trifluoroacetic acid]	< 100	> 1000	100 to 1000

Second part, the molecule after the results:

IC50 [1] [nM]	EC50 [2] [nM]	IC50 [3] [nM]	Compound
< 100	< 100	< 100	C=CC(=O)N1CCN(c2nc(OCCN3CCC4(CC3)CCN(C(=O)C3CCN(Cc5ccc(-n6c(C(N)=O)nnc6-c6cc(C(C)C)c(O)cc6O)cc5)CC3)CC4)nc3c2CCN(c2cccc4cccc(Cl)c24)C3)C[C@@H]1CC#N [Compound 210, (S)-4-(4-((4-(9-(2-((4-(4-acryloyl-3-(cyanomethyl)piperazin-1-yl)-7-(8-chloronaphthalen-1-yl)-5,6,7,8-tetrahydropyrido[3,4-d]pyrimidin-2-yl)oxy)ethyl)-3,9-diazaspiro[5.5]undecane-3-carbonyl)piperidin-1-yl)methyl)phenyl)-5-(2,4-dihydroxy-5-isopropylphenyl)-4H-1,2,4-triazole-3-carboxamide]
< 100	100 to 1000	100 to 1000	C=CC(=O)N1CCN(c2nc(OC[C@@H]3CC[C@H](C(=O)N4CCN(Cc5ccc(-n6c(O)nnc6-c6cc(C(C)C)c(O)cc6O)cc5)CC4)N3C)nc3c2CCN(c2cccc4cccc(Cl)c24)C3)C[C@@H]1CC#N [Compound 324, 2-[(2S)-4-[7-(8-chloronaphthalen-1-yl)-2-{[(2S,5R)-5-[4-({4-[3-(2,4-dihydroxy-5-isopropylphenyl)-5-hydroxy-1,2,4-triazol-4-yl]phenyl}methyl)piperazine-1-carbonyl]-1-methylpyrrolidin-2-yl]methoxy}-5H,6H,8H-pyrido[3,4-d]pyrimidin-4-yl]-1-(prop-2-enoyl)piperazin-2-yl]acetonitrile]
< 100	100 to 1000	< 100	C=CC(=O)N1CCN(c2nc(OC[C@@H]3C[C@H](C(=O)NCCc4ccc(-n5c(O)nnc5-c5cc(C(C)C)c(O)cc5O)cc4)CN3C)nc3c2CCN(c2cccc4cccc(Cl)c24)C3)C[C@@H]1CC#N [Compound 345, (3S,5S)-5-({[7-(8-chloronaphthalen-1-yl)-4-[(3S)-3-(cyanomethyl)-4-(prop-2-enoyl)piperazin-1-yl]-5H,6H,8H-pyrido[3,4-d]pyrimidin-2-yl]oxy}methyl)-N-(2-{4-[3-(2,4-dihydroxy-5-isopropylphenyl)-5-hydroxy-1,2,4-triazol-4-yl]phenyl}ethyl)-1-methylpyrrolidine-3-carboxamide]
< 100	< 100	100 to 1000	C=CC(=O)N1CCN(c2nc(OC[C@@H]3C[C@H](C(=O)N4CCN(Cc5ccc(-n6c(C(=O)NCC(F)(F)F)nnc6-c6cc(C(C)C)c(O)cc6O)cc5)CC4)CN3C)nc3c2CCN(c2cccc4cccc(Cl)c24)C3)C[C@@H]1CC#N [Compound 333, 4-[4-({4-[(3S,5S)-5-({[7-(8-chloronaphthalen-1-yl)-4-[(3S)-3-(cyanomethyl)-4-(prop-2-enoyl)piperazin-1-yl]-5H,6H,8H-pyrido[3,4-d]pyrimidin-2-yl]oxy}methyl)-1-methylpyrrolidine-3-carbonyl]piperazin-1-yl}methyl)phenyl]-5-(2,4-dihydroxy-5-isopropylphenyl)-N-(2,2,2-trifluoroethyl)-1,2,4-triazole-3-carboxamide]
< 100	> 1000	< 100	C=CC(=O)N1CCN(c2nc(OC[C@@H]3C[C@H](N4CCC(C(=O)NCCc5ccc(-n6c(O)nnc6-c6cc(C(C)C)c(O)cc6O)cc5)CC4)CN3C)nc3c2CCN(c2cccc4cccc(Cl)c24)C3)C[C@@H]1CC#N [Compound 328, 1-[(3S,5S)-5-({[7-(8-chloronaphthalen-1-yl)-4-[(3S)-3-(cyanomethyl)-4-(prop-2-enoyl)piperazin-1-yl]-5H,6H,8H-pyrido[3,4-d]pyrimidin-2-yl]oxy}methyl)-1-methylpyrrolidin-3-yl]-N-(2-{4-[3-(2,4-dihydroxy-5-isopropylphenyl)-5-hydroxy-1,2,4-triazol-4-yl]phenyl}ethyl)piperidine-4-carboxamide]
